These results are taken from patent publication US8063094B2, “Anti-cytokine heterocyclic compounds” (Boehringer Ingelheim International GmbH, priority 2007, dated 2011).

Each structure is given as a SMILES string.

For orientation: melting point means the temperature of the solid-liquid transition. Regarding `CNCCCc1c(C(=O)O)[nH]c2ccc(C(N)=O)cc12` [Example 13, 5-carboxamide-3-(3-methylaminopropyl)-1H-indole-2-carboxylic acid], the melting point was 266 to 268 °C (dec.).
